# From US20230295096A1, “PYRAZOLE CARBOXAMIDE COMPOUNDS FOR TREATMENT OF HBV” (ASSEMBLY BIOSCIENCES, INC., priority 2020, published 2023)
# Test system: HBV
# Test: Viral load production from HepAD38 cells, qPCR of the HBV core sequence in supernatant
# Format: cell-based
# Conditions: HepAD38 cells, 5 days, HBV DNA in supernatant by qPCR; Table 1 ranges; read-out: Activity (viral load lowering EC50)
# How it was run: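 EC50 and CC50 come from four-parameter logistic fits of supernatant HBV core DNA (TaqMan qPCR, DNA standards, compared with DMSO wells) and of CellTiter-Glo luminescence.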
row,Compound,EC50 [nM]
1,Cn1nc(C2CC3CC(O)(CNc4ncc(F)cn4)CC3C2)c(C(=O)Nc2ccc(F)c(Cl)c2)c1N (centres unmarked) [Example 213],10 to 50

# Same assay, conditions: Hepatitis B virus, HePAD38, 120 h, HepAD38 cells, 5 days, HBV DNA in supernatant by qPCR; Table 1 ranges; read-out: Activity (viral load lowering EC50)
row,Compound,EC50 [nM]
1,Cn1ccc(C2(O)CC3CC(c4nn(C)c(N)c4C(=O)Nc4ccc(F)c(Cl)c4)CC3C2)n1 (centres unmarked) [Example 153],< 10
2,Cc1cc(C2(O)CC3CC(c4nn(C)c(N)c4C(=O)Nc4ccc(F)c(Cl)c4)CC3C2)c(F)cn1 (centres unmarked) [Example 154],< 10
3,"Cn1nc(N)cc1C1(O)CC2CC(c3nn(C)c(N)c3C(=O)Nc3ccc(F)c(Cl)c3)CC2C1 [Example 155, 5-amino-3-((2 s,3aR,5r,6aS)-5-(3-amino-1-methyl-1H-pyrazol-5-yl)-5-hydroxyoctahydropentalen-2-yl)-N-(3-chloro-4-fluorophenyl)-1-methyl-1H-pyrazole-4-carboxamide]",< 10
4,"Cn1nc(C2CC3CC(O)(c4c[nH]nc4C(F)(F)F)CC3C2)c(C(=O)Nc2ccc(F)c(Cl)c2)c1N (centres unmarked) [Example 156, 5-amino-N-(3-chloro-4-fluorophenyl)-3-(5-hydroxy-5-(3-(trifluoromethyl)-1H-pyrazol-4-yl)octahydropentalen-2-yl)-1-methyl-1H-pyrazole-4-carboxamide]",< 10
5,"Cn1nc(C2CC3CC(O)(c4cn(COP(=O)(O)O)nc4C(F)(F)F)CC3C2)c(C(=O)Nc2ccc(F)c(Cl)c2)c1N (centres unmarked) [Example 157, sodium sodium (4-(5-(5-amino-4-((3-chloro-4-fluorophenyl)carbamoyl)-1-methyl-1H-pyrazol-3-yl)-2-hydroxyoctahydropentalen-2-yl)-3-(trifluoromethyl)-1H-pyrazol-1-yl)methyl phosphate]",< 10
6,"COCCOCCOCCOCCOCCOCCOCCOCCOC(=O)OCn1cc(C2(O)CC3CC(c4nn(C)c(N)c4C(=O)Nc4ccc(F)c(Cl)c4)CC3C2)c(C(F)(F)F)n1 [Example 158, (4-((2r,3aR,5 s,6aS)-5-(5-amino-4-((3-chloro-4-fluorophenyl)carbamoyl)-1-methyl-1H-pyrazol-3-yl)-2-hydroxyoctahydropentalen-2-yl)-3-(trifluoromethyl)-1H-pyrazol-1-yl)methyl (2,5,8,11,14,17,20,23-octaoxapentacosan-25-yl) carbonate]",< 10
7,Cn1nc(C(F)(F)F)cc1C1(O)CC2CC(c3nn(C)c(N)c3C(=O)Nc3ccc(F)c(Cl)c3)CC2C1 (centres unmarked) [Example 159],10 to 50
8,Cn1nc(C2CC3CC(O)(Cc4nccs4)CC3C2)c(C(=O)Nc2ccc(F)c(Cl)c2)c1N (centres unmarked) [Example 160],< 10
9,Cc1ncc(C2(O)CC3CC(c4nn(C)c(N)c4C(=O)Nc4ccc(F)c(Cl)c4)CC3C2)s1 (centres unmarked) [Example 161],< 10
10,Cc1ccc(S(=O)(=O)CC2(O)CC3CC(c4nn(C)c(N)c4C(=O)Nc4ccc(F)c(Cl)c4)CC3C2)cn1 (centres unmarked) [Example 162],< 10
11,Cn1cc(C(F)(F)F)nc1C1(O)CC2CC(c3nn(C)c(N)c3C(=O)Nc3ccc(F)c(Cl)c3)CC2C1 (centres unmarked) [Example 163],10 to 50
12,Cn1nc(C2CC3CC(O)(Cc4ccccn4)CC3C2)c(C(=O)Nc2ccc(F)c(Cl)c2)c1N (centres unmarked) [Example 164],10 to 50
13,Cn1nc(C2CC3CC(O)(c4cc(Br)ncc4F)CC3C2)c(C(=O)Nc2ccc(F)c(Cl)c2)c1N (centres unmarked) [Example 166],10 to 50
14,Cn1nc(C2CC3CC(O)(c4ncc(C(F)(F)F)n4C)CC3C2)c(C(=O)Nc2ccc(F)c(Cl)c2)c1N (centres unmarked) [Example 167],10 to 50
15,Cn1nc(C2CC3CC(O)(c4ccc(F)cn4)CC3C2)c(C(=O)Nc2ccc(F)c(Cl)c2)c1N (centres unmarked) [Example 168],< 10
16,Cn1nc(C2CC3CC(O)(c4ccncc4F)CC3C2)c(C(=O)Nc2ccc(F)c(Cl)c2)c1N (centres unmarked) [Example 169],< 10
17,Cn1nc(C2CC3CC(O)(c4c[nH]nn4)CC3C2)c(C(=O)Nc2ccc(F)c(Cl)c2)c1N (centres unmarked) [Example 170],< 10
18,Cn1nc(C2CC3CC(O)(c4nn[nH]n4)CC3C2)c(C(=O)Nc2ccc(F)c(Cl)c2)c1N (centres unmarked) [Example 171],> 500
19,Cn1nnnc1C1(O)CC2CC(c3nn(C)c(N)c3C(=O)Nc3ccc(F)c(Cl)c3)CC2C1 (centres unmarked) [Example 172],10 to 50
20,Cn1nc(C2CC3CC(O)(c4cn[nH]n4)CC3C2)c(C(=O)Nc2ccc(F)c(Cl)c2)c1N (centres unmarked) [Example 173],10 to 50
21,Cn1nc(C2CC3CC(O)(c4c(F)cncc4F)CC3C2)c(C(=O)Nc2ccc(F)c(Cl)c2)c1N (centres unmarked) [Example 174],< 10

row,Compound,EC50 [nM]
1,Cn1nc(C2CC3CC(O)(c4ncccn4)CC3C2)c(C(=O)Nc2ccc(F)c(Cl)c2)c1N (centres unmarked) [Example 175],< 10
2,Cc1nnc(C2(O)CC3CC(c4nn(C)c(N)c4C(=O)Nc4ccc(F)c(Cl)c4)CC3C2)o1 (centres unmarked) [Example 176],10 to 50
3,Cc1nc(C2(O)CC3CC(c4nn(C)c(N)c4C(=O)Nc4ccc(F)c(Cl)c4)CC3C2)no1 (centres unmarked) [Example 177],< 10
4,Cn1nc(C2CC3CC(O)(c4cc[nH]n4)CC3C2)c(C(=O)Nc2ccc(F)c(Cl)c2)c1N (centres unmarked) [Example 178],< 10
5,Cc1noc(C2(O)CC3CC(c4nn(C)c(N)c4C(=O)Nc4ccc(F)c(Cl)c4)CC3C2)n1 (centres unmarked) [Example 179],< 10
6,Cc1cc(C2(O)CC3CC(c4nn(C)c(N)c4C(=O)Nc4ccc(F)c(Cl)c4)CC3C2)on1 (centres unmarked) [Example 180],< 10
7,Cn1nc(C2CC3CC(O)(Cc4ncco4)CC3C2)c(C(=O)Nc2ccc(F)c(Cl)c2)c1N (centres unmarked) [Example 181],< 10
8,Cn1nc(C2CC3CC(N)(CS(C)(=O)=O)CC3C2)c(C(=O)Nc2ccc(F)c(Cl)c2)c1N (centres unmarked) [Example 182],> 500
9,Cc1coc(C2(O)CC3CC(c4nn(C)c(N)c4C(=O)Nc4ccc(F)c(Cl)c4)CC3C2)n1 (centres unmarked) [Example 183],< 10
10,Cc1cnc(C2(O)CC3CC(c4nn(C)c(N)c4C(=O)Nc4ccc(F)c(Cl)c4)CC3C2)o1 (centres unmarked) [Example 184],< 10
11,Cn1nc(C2CC3CC(N4CCC(F)(C(N)=O)CC4)CC3C2)c(C(=O)Nc2ccc(F)c(Cl)c2)c1N (centres unmarked) [Example 185],10 to 50
12,COC(=O)C1=CCN(C2CC3CC(c4nn(C)c(N)c4C(=O)Nc4ccc(F)c(Cl)c4)CC3C2)CC1 (centres unmarked) [Example 186],50 to 500
13,Cn1nc(C2CC3CC(N4CCC(C(N)=O)CC4)CC3C2)c(C(=O)Nc2ccc(F)c(Cl)c2)c1N (centres unmarked) [Example 187],50 to 500
14,Cn1nc(C2CC3CC(N4CC=C(C(=O)O)CC4)CC3C2)c(C(=O)Nc2ccc(F)c(Cl)c2)c1N (centres unmarked) [Example 188],> 500
15,Cn1nc(C2CC3CC(N4CC=C(C(N)=O)CC4)CC3C2)c(C(=O)Nc2ccc(F)c(Cl)c2)c1N (centres unmarked) [Example 189],10 to 50
16,Cn1nc(C2CC3CC(O)(c4cccnn4)CC3C2)c(C(=O)Nc2ccc(F)c(Cl)c2)c1N (centres unmarked) [Example 190],< 10
17,Cn1nc(C2CC3CC(O)(c4cnccn4)CC3C2)c(C(=O)Nc2ccc(F)c(Cl)c2)c1N (centres unmarked) [Example 191],< 10
18,CSc1nccc(C2(O)CC3CC(c4nn(C)c(N)c4C(=O)Nc4ccc(F)c(Cl)c4)CC3C2)n1 (centres unmarked) [Example 192],10 to 50
19,Cn1ncnc1C1(O)CC2CC(c3nn(C)c(N)c3C(=O)Nc3ccc(F)c(Cl)c3)CC2C1 (centres unmarked) [Example 193],< 10
20,Cn1nc(Br)c(C2(O)CC3CC(c4nn(C)c(N)c4C(=O)Nc4ccc(F)c(Cl)c4)CC3C2)n1 (centres unmarked) [Example 194],< 10
21,Cn1ncc(C2(O)CC3CC(c4nn(C)c(N)c4C(=O)Nc4ccc(F)c(Cl)c4)CC3C2)n1 (centres unmarked) [Example 195],< 10

row,Compound,EC50 [nM]
1,CCn1nccc1C1(O)CC2CC(c3nn(C)c(N)c3C(=O)Nc3ccc(F)c(Cl)c3)CC2C1 (centres unmarked) [Example 196],< 10
2,Cn1nc(C2CC3C=C(c4ccn[nH]4)CC3C2)c(C(=O)Nc2ccc(F)c(Cl)c2)c1N (centres unmarked) [Example 197],< 10
3,C=C(n1cccn1)C1(O)CC2CC(c3nn(C)c(N)c3C(=O)Nc3ccc(F)c(Cl)c3)CC2C1 (centres unmarked) [Example 198],< 10
4,CC(n1cccn1)C1(O)CC2CC(c3nn(C)c(N)c3C(=O)Nc3ccc(F)c(Cl)c3)CC2C1 (centres unmarked) [Example 199],< 10
5,CC(C)n1nccc1C1(O)CC2CC(c3nn(C)c(N)c3C(=O)Nc3ccc(F)c(Cl)c3)CC2C1 (centres unmarked) [Example 200],< 10
6,Cn1nc(C2CC3CC(O)(CNc4ncc(F)cn4)CC3C2)c(C(=O)Nc2ccc(F)c(Cl)c2)c1N (centres unmarked) [Example 201],< 10
7,CC(C)n1nc([N+](=O)[O-])cc1C1(O)CC2CC(c3nn(C)c(N)c3C(=O)Nc3ccc(F)c(Cl)c3)CC2C1 (centres unmarked) [Example 206],< 10
8,Cn1nc(C(F)(F)F)c(C2(O)CC3CC(c4nn(C)c(N)c4C(=O)Nc4ccc(F)c(Cl)c4)CC3C2)n1 (centres unmarked) [Example 207],< 10
9,Cn1nc(C2CC3CC(O)(c4c(Cl)cnn4C)CC3C2)c(C(=O)Nc2ccc(F)c(Cl)c2)c1N (centres unmarked) [Example 208],< 10
10,Cn1nc(C2CC3CC(O)(c4c(F)cnn4C)CC3C2)c(C(=O)Nc2ccc(F)c(Cl)c2)c1N (centres unmarked) [Example 209],< 10
11,CCn1nc(N)cc1C1(O)CC2CC(c3nn(C)c(N)c3C(=O)Nc3ccc(F)c(Cl)c3)CC2C1 (centres unmarked) [Example 210],< 10
12,CC(C)n1nc(N)cc1C1(O)CC2CC(c3nn(C)c(N)c3C(=O)Nc3ccc(F)c(Cl)c3)CC2C1 (centres unmarked) [Example 211],< 10
13,Cn1nc(C2CC3CC(O)(c4n[nH]cc4C(F)(F)F)CC3C2)c(C(=O)Nc2ccc(F)c(Cl)c2)c1N (centres unmarked) [Example 212],< 10
14,CCn1nc(N)cc1C1=CC2CC(c3nn(C)c(N)c3C(=O)Nc3ccc(F)c(Cl)c3)CC2C1 (centres unmarked) [Example 214],< 10
15,Cn1nc(C2CC3CC(O)(c4cc(N)nn4C4CC4)CC3C2)c(C(=O)Nc2ccc(F)c(Cl)c2)c1N (centres unmarked) [Example 215],< 10
16,Cn1nc(C2CC3C=C(c4cc(N)nn4C4CC4)CC3C2)c(C(=O)Nc2ccc(F)c(Cl)c2)c1N (centres unmarked) [Example 216],10 to 50
17,Cc1cc(C2(O)CC3CC(c4nn(C)c(N)c4C(=O)Nc4ccc(F)c(Cl)c4)CC3C2)n(C)n1 (centres unmarked) [Example 217],< 10
18,Cn1nc(C2CC3CC(O)(c4cc([N+](=O)[O-])nn4C4CC4)CC3C2)c(C(=O)Nc2ccc(F)c(Cl)c2)c1N (centres unmarked) [Example 218],< 10
19,Cn1cc(C(F)(F)F)c(C2(O)CC3CC(c4nn(C)c(N)c4C(=O)Nc4ccc(F)c(Cl)c4)CC3C2)n1 (centres unmarked) [Example 219],< 10
